Reference: patent EP4707280A1, “1,4-CINEOLE DERIVATIVE AND INTERMEDIATE THEREOF, HERBICIDE CONTAINING SAID DERIVATIVE AS ACTIVE INGREDIENT, METHOD FOR USING HERBICIDE, AND METHOD FOR PREPARING AGROCHEMICAL COMPOSITION” (HOKKO CHEMICAL INDUSTRY CO., LTD., priority 2023, dated 2024)

Tests used:
Format in all cases: in vivo
Echinochloa crus-galli [1] = assay: Test Example 7: herbicidal effect test by soil application in upland field (low dose); details: Echinochloa crus-galli, 7.5 g per 10 ares, sprayed one day after sowing, 14 days after application, read-out: weed inhibition rate
Method: (§1) The present test was conducted in duplicate for each chemical concentration group, and the weed inhibition rate (%) was determined 14 days after chemical application using the following formula (Math. 1). [formula]
(§2) Pots with an area of 36 cm^2 were filled with upland soil (alluvial loam), twenty seeds each of weeds of Digitaria ciliaris, and Echinochloa crus-galli were uniformly mixed with the top 1 cm layer of soil and the surface was lightly pressed down. One day after sowing, an emulsifiable concentrate prepared according to Formulation Example 5 using the compound shown below was diluted with water, and the diluted solution was sprayed onto the soil surface at a rate of 100 liters per 10 ares. The amount of the active ingredient to be applied was equivalent to 7.5 g per 10 ares. Fourteen days after chemical application, the herbicidal effect was evaluated according to the same criteria as in Test Example 1.

Digitaria ciliaris [2] = assay: as above; details: Digitaria ciliaris, 7.5 g per 10 ares, sprayed one day after sowing, 14 days after application, read-out: weed inhibition rate
Method: as §1, §2

Echinochloa crus-galli [3] = assay: Test Example 4: herbicidal effect test by stem and leaf treatment in upland field; details: Echinochloa crus-galli; 120 g per 10 ares; sprayed seven days after sowing, upland soil; 14 days after application; read-out: weed inhibition rate
[4] = tested on: Echinochloa crus-galli var. formosensis; assay: Test Example 1: herbicidal effect test by soil application in paddy rice; details: Echinochloa crus-galli, soil, 336 h; 120 g active ingredient per 10 ares; applied immediately after sowing, flooded pots; 14 days after application; read-out: weed inhibition rate
In short: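 Soil-applied test under flooded paddy conditions (~3 cm water) in a glass greenhouse. Seeds were sown shallow (0–1 cm, 30 per species), then compound was dripped in as diluted emulsifiable concentrate at 120 g a.i./10 a.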

[5] = tested on: Echinochloa crus-galli var. formosensis; assay: Test Example 5: herbicidal effect test by soil application in paddy rice (low dose); details: Echinochloa crus-galli, soil, 336 h; 7.5 g per 10 ares; applied immediately after sowing, flooded pots; 14 days after application; read-out: weed inhibition rate
In short: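 Paddy soil in Wagner pots was fertilized (N:P:K 16:16:16), puddled, sown with 30 seeds per weed species at 0–1 cm, then flooded to ~3 cm in a glass greenhouse. Emulsifiable concentrate diluted in water was dropper-applied into floodwater immediately, at 7.5 g active ingredient per 10 ares; duplicates, scored at 14 days.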

Echinochloa crus-galli [6] = assay: Test Example 3: herbicidal effect test by soil application in upland field; details: Echinochloa crus-galli, 120 g per 10 ares, sprayed one day after sowing, 14 days after application, read-out: weed inhibition rate
In short: (§3)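 Pre-emergence test: seeds mixed into top 1 cm of alluvial loam upland soil in pots; emulsifiable concentrate diluted in water sprayed on soil one day after sowing at 100 L/10 a, 120 g a.i./10 a. Weed inhibition rate (%) scored at 14 days, in duplicate.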

Digitaria ciliaris [7] = assay: as above; details: Digitaria ciliaris, 120 g per 10 ares, sprayed one day after sowing, 14 days after application, read-out: weed inhibition rate
In short: as §3

[8] = tested on: Echinochloa crus-galli var. formosensis; assay: Test Example 6: herbicidal effect test by application during growth period of paddy rice (low dose); details: Echinochloa crus-galli; 7.5 g per 10 ares; applied seven days after sowing, flooded pots; 14 days after application; read-out: weed inhibition rate
In short: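 Low-dose water application, 7.5 g a.i. per 10 ares, given by dropper into flooded pots (about 3 cm depth) 7 days after sowing of 30 weed seeds each at 0–1 cm. Evaluation of inhibition (%) took place 14 days later, duplicate per rate.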

Echinochloa crus-galli [9] = assay: Test Example 8: herbicidal effect test by stem and leaf treatment in upland field (low dose); details: Echinochloa crus-galli; 7.5 g per 10 ares; sprayed seven days after sowing, upland soil; 14 days after application; read-out: weed inhibition rate
Method: as §1
as §2, with “Seven days” for “One day”

Digitaria ciliaris [10] = assay: as above; details: Digitaria ciliaris; 7.5 g per 10 ares; sprayed seven days after sowing, upland soil; 14 days after application; read-out: weed inhibition rate
Method: as §1
as §2, with “Seven days” for “One day”

[11] = tested on: Echinochloa crus-galli var. formosensis; assay: Test Example 2: herbicidal effect test by application during growth period of paddy rice; details: Echinochloa crus-galli; 120 g per 10 ares; applied seven days after sowing, flooded pots; 14 days after application; read-out: weed inhibition rate
In short: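 Paddy soil in Wagner pots was puddled with N:P:K 16:16:16 fertilizer, sown with 30 weed seeds per species at 0–1 cm and flooded to about 3 cm. Seven days after sowing, a water-diluted emulsifiable concentrate was dropped onto the water at 120 g active ingredient per 10 ares. Weed inhibition (%) was scored at 14 days, in duplicate.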

Digitaria ciliaris [12] = assay: Test Example 4: herbicidal effect test by stem and leaf treatment in upland field; details: Digitaria ciliaris; 120 g per 10 ares; sprayed seven days after sowing, upland soil; 14 days after application; read-out: weed inhibition rate

CC(C)C12CC(OCc3ccccc3Br)C(C)(CC1Br)O2 (stereo not drawn) [1-1361, 5-bromo-2-[(2-bromophenyl)methoxy]-1-methyl-4-isopropyl-7-oxabicyclo[2.2.1]heptane]
≥ 80%: inhibition at 75 g/ha (Echinochloa crus-galli [1]) | inhibition at 75 g/ha (Digitaria ciliaris [2]) | inhibition at 1200 g/ha (Echinochloa crus-galli [3]) | pest or weed control at 1200 g/ha [4] | inhibition at 75 g/ha [5] | inhibition at 1200 g/ha (Echinochloa crus-galli [6]) | inhibition at 1200 g/ha (Digitaria ciliaris [7]) | inhibition at 75 g/ha [8] | inhibition at 75 g/ha (Echinochloa crus-galli [9]) | inhibition at 75 g/ha (Digitaria ciliaris [10]) | inhibition at 1200 g/ha [11] | inhibition at 1200 g/ha (Digitaria ciliaris [12])

COc1ccccc1COC1CC2(C(C)C)OC1(C)CC2Br (stereo not drawn) [1-1349, 5-bromo-2-[(2-methoxyphenyl)methoxy]-1-methyl-4-isopropyl-7-oxabicyclo[2.2.1]heptane]
≥ 80%: inhibition at 75 g/ha (Echinochloa crus-galli [1]) | inhibition at 75 g/ha (Digitaria ciliaris [2]) | inhibition at 1200 g/ha (Echinochloa crus-galli [3]) | pest or weed control at 1200 g/ha [4] | inhibition at 75 g/ha [5] | inhibition at 1200 g/ha (Echinochloa crus-galli [6]) | inhibition at 1200 g/ha (Digitaria ciliaris [7]) | inhibition at 75 g/ha [8] | inhibition at 75 g/ha (Echinochloa crus-galli [9]) | inhibition at 75 g/ha (Digitaria ciliaris [10]) | inhibition at 1200 g/ha [11] | inhibition at 1200 g/ha (Digitaria ciliaris [12])

CC(C)C12CC(OCc3ccccc3Cl)C(C)(CC1Br)O2 (stereo not drawn) [1-1358, 5-bromo-2-[(2-chlorophenyl)methoxy]-1-methyl-4-isopropyl-7-oxabicyclo[2.2.1]heptane]
≥ 80%: inhibition at 75 g/ha (Echinochloa crus-galli [1]) | inhibition at 75 g/ha (Digitaria ciliaris [2]) | inhibition at 1200 g/ha (Echinochloa crus-galli [3]) | pest or weed control at 1200 g/ha [4] | inhibition at 75 g/ha [5] | inhibition at 1200 g/ha (Echinochloa crus-galli [6]) | inhibition at 1200 g/ha (Digitaria ciliaris [7]) | inhibition at 75 g/ha [8] | inhibition at 75 g/ha (Echinochloa crus-galli [9]) | inhibition at 75 g/ha (Digitaria ciliaris [10]) | inhibition at 1200 g/ha [11] | inhibition at 1200 g/ha (Digitaria ciliaris [12])

CC(C)[C@]12C[C@@H](OCc3ccccn3)[C@](C)(C[C@@H]1Br)O2 [1-718, 2-[[(1S,2R,4R,5S)-5-bromo-1-methyl-4-isopropyl-7-oxabicyclo[2.2.1]heptan-2-yl]oxymethyl]pyridine]
≥ 80%: inhibition at 75 g/ha (Echinochloa crus-galli [1]) | inhibition at 75 g/ha (Digitaria ciliaris [2]) | inhibition at 1200 g/ha (Echinochloa crus-galli [3]) | pest or weed control at 1200 g/ha [4] | inhibition at 75 g/ha [5] | inhibition at 1200 g/ha (Echinochloa crus-galli [6]) | inhibition at 1200 g/ha (Digitaria ciliaris [7]) | inhibition at 75 g/ha [8] | inhibition at 75 g/ha (Echinochloa crus-galli [9]) | inhibition at 75 g/ha (Digitaria ciliaris [10]) | inhibition at 1200 g/ha [11] | inhibition at 1200 g/ha (Digitaria ciliaris [12])

CC(C)C12CC(OCc3ccc(F)cc3)C(C)(CC1Br)O2 (stereo not drawn) [1-1357, 5-bromo-2-[(4-fluorophenyl)methoxy]-1-methyl-4-isopropyl-7-oxabicyclo[2.2.1]heptane]
≥ 80%: inhibition at 75 g/ha (Echinochloa crus-galli [1]) | inhibition at 75 g/ha (Digitaria ciliaris [2]) | inhibition at 1200 g/ha (Echinochloa crus-galli [3]) | pest or weed control at 1200 g/ha [4] | inhibition at 75 g/ha [5] | inhibition at 1200 g/ha (Echinochloa crus-galli [6]) | inhibition at 1200 g/ha (Digitaria ciliaris [7]) | inhibition at 75 g/ha [8] | inhibition at 75 g/ha (Echinochloa crus-galli [9]) | inhibition at 75 g/ha (Digitaria ciliaris [10]) | inhibition at 1200 g/ha [11] | inhibition at 1200 g/ha (Digitaria ciliaris [12])
